Key:
PfA-M1 = biological target: T1, PfA-M1 (Plasmodium falciparum, UniProt O96935); test: Dose-response aminopeptidase assay, Ki via Dixon plots, PfA-M1; format: biochemical; conditions: Dixon plot; substrate 20 and 40 μM
T1 construct: made in house; host or cells: Escherichia coli
T1 sequence (O96935 1-1085): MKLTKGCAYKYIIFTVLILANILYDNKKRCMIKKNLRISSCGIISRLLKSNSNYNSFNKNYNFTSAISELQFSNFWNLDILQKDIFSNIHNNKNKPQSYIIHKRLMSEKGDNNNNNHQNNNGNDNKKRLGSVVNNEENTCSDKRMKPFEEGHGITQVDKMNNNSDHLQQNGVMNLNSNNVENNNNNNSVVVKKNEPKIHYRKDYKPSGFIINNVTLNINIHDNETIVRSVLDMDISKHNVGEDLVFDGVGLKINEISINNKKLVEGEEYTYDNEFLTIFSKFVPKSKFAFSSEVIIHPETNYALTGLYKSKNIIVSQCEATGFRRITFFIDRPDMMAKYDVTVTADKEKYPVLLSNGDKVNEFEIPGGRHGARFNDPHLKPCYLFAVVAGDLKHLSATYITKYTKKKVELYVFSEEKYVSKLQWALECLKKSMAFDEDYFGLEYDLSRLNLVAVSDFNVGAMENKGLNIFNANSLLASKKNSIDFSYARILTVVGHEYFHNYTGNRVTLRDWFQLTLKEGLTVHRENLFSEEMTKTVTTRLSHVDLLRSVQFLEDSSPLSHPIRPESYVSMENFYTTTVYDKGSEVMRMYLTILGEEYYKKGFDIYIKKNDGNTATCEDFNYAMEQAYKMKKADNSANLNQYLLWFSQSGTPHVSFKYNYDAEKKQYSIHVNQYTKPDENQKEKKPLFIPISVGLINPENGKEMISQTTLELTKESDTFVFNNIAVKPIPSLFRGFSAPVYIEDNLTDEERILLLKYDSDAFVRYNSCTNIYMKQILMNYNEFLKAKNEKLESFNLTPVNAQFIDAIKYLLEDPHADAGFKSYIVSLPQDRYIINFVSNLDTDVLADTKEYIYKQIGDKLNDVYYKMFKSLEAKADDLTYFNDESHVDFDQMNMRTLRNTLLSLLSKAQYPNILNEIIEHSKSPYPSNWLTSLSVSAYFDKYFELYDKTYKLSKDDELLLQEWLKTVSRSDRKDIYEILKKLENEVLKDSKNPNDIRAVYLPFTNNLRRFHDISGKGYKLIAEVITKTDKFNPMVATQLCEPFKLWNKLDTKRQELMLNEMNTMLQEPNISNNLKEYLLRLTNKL
Source text: (§1) The expression and purification of PfA-M1 and PfA-M17 in Escherichia coli employed a two-step purification process of Ni-NTA-agarose column, followed by size exclusion chromatography on a Superdex 200 16/60 using an AKTAxpress high throughput chromatography system (http://proteinexpress.med.monash.edu.au/index.htm), as previously described. Compounds were purchased from Ambinter (France). Purity (90% or higher) of these compounds was confirmed by vendors. Aminopeptidase activity and K i values for both enzymes were determined as already described.
(§2) The top 12 hits identified in the virtual screen were evaluated for their ability to inhibit both PfA-M1 and PfA-M17 in vitro. We initially tested the total aminopeptidase activity (as reported by the fluorigenic substrate L-leucyl-7-amido-4-methylcoumarin) in the presence of 1 mM compound (Fig 3). In this screen, the “no compound” control was considered 100% activity and bestatin was included as an indicator/control for inhibition. From the results obtained, only compounds 4 (ZINC ID: 25108749) and 12 (ZINC ID: 4090432) were able to inhibit the activity of the enzymes to > 50%. […] The two inhibitory compounds were further analyzed to identify their effects on the individual aminopeptidases. To do this, we performed dose-response assays for each inhibitor with each enzyme, and then determined a K i via Dixon plots (Fig 4). […] Compound 4 was a weaker inhibitor of both enzymes with K i’s in the micromolar range (K i = 30.0 μM for PfA-M1 and 0.7 μM for PfA-M17; Fig 4).
(§3) Fig 4 Dixon plots of 1/V (y axis) versus inhibitor concentration (x axis) for PfA-M1 (top panel) and PfA-M17 (bottom panel). For PfA-M1, substrate concentrations were 20 μM (blue) and 40 μM (red); inhibitor concentration in μM. For PfA-M17, substrate concentrations were 5 μM (magenta) and 10 μM (green); inhibitor concentration in μM or nM as indicated. The point of intersection (-K i) is indicated as a dotted line. (A) PfA-M1 and compound 4. (B) PfA-M1 and compound 12. (C) PfA-M17 and compound 4. (D) PfA-M17 and compound 12

PfA-M17 = biological target: T2, PfA-M17 (Plasmodium falciparum, UniProt Q8IL11); test: Dose-response aminopeptidase assay, Ki via Dixon plots, PfA-M17; format: biochemical; conditions: Dixon plot; substrate 5 and 10 μM
T2 construct: made in house; host or cells: Escherichia coli
T2 sequence (Q8IL11 84-605 limits assumed): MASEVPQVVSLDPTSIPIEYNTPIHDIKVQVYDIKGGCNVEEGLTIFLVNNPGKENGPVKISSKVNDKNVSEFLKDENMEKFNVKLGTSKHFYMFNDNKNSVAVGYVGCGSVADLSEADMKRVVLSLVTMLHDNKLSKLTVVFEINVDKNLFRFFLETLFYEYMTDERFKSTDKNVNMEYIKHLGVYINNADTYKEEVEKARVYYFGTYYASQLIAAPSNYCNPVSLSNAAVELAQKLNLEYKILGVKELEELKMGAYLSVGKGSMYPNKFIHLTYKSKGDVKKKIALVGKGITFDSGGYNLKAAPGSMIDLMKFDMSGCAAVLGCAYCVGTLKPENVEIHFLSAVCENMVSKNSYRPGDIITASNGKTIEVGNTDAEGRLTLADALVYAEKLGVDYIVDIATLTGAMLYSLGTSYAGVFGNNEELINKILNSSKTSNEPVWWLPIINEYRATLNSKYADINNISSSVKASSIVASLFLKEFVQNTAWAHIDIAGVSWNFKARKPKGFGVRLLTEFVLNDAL
Source text: as §1, §2, §3

[1] = test system: PfA-M1 and PfA-M17 (total aminopeptidase activity); test: Total aminopeptidase activity in the presence of 1 mM compound (fluorigenic substrate L-leucyl-7-amido-4-methylcoumarin); format: biochemical, Plasmodium falciparum; conditions: no compound control = 100% activity
Source text: as §1
The top 12 hits identified in the virtual screen were evaluated for their ability to inhibit both PfA-M1 and PfA-M17 in vitro. We initially tested the total aminopeptidase activity (as reported by the fluorigenic substrate L-leucyl-7-amido-4-methylcoumarin) in the presence of 1 mM compound (Fig 3). In this screen, the “no compound” control was considered 100% activity and bestatin was included as an indicator/control for inhibition. From the results obtained, only compounds 4 (ZINC ID: 25108749) and 12 (ZINC ID: 4090432) were able to inhibit the activity of the enzymes to > 50%. […] The two inhibitory compounds were further analyzed to identify their effects on the individual aminopeptidases. To do this, we performed dose-response assays for each inhibitor with each enzyme, and then determined a K i via Dixon plots (Fig 4). […]

| SMILES | Ki PfA-M1 (PfA-M1) | Ki PfA-M17 (PfA-M17) | inhibition of total aminopeptidase activity [1] [%] | Ki (PfA-M1) [nM] | Ki (PfA-M17) [nM] |
| --- | --- | --- | --- | --- | --- |
| CP(=O)(O)CCCCC(N)C(=O)O (stereo not shown) [Compound 1] | n.i. | n.i. | – | – | – |
| NCP(=O)(O)CC(CCCC(=O)O)C(=O)O (stereo not shown) [Compound 3] | n.i. | n.i. | – | – | – |
| CC(CP(=O)(O)C(N)c1ccccc1)C(=O)O (stereo not shown) [Compound 4, 3-{[amino(phenyl)methyl](hydroxy)phosphoryl}-methyl propanoic acid] | – | – | 95 | 30000 | 700 |
| O=C(O)C(Cc1ccco1)P(=O)(O)CN1CCCCC1 (stereo not shown) [Compound 6] | n.i. | n.i. | – | – | – |
| CCCN(CCC)CP(=O)(O)CCC(=O)O [Compound 7] | n.i. | n.i. | – | – | – |
| O=C(O)CCP(=O)(O)CN1CCCCC1 [Compound 8] | n.i. | n.i. | – | – | – |
| O=C(O)C(CC1CCCO1)P(=O)(O)CN1CCCC1=O (stereo not shown) [Compound 9] | n.i. | n.i. | – | – | – |
| NC(=O)NC(CC(=O)O)C(=O)O (stereo not shown) [Compound 10] | n.i. | n.i. | – | – | – |
| CC(CC(N)C(=O)O)C(=O)O (stereo not shown) [Compound 11] | n.i. | n.i. | – | – | – |
| CC(C)CC(CP(=O)(O)C(N)c1ccccc1)C(=O)O (stereo not shown) [Compound 12] | – | – | 98 | 2300 | 17 |
